From US9556165B2 (priority 2012, dated 2017)
In brackets after ≈: the same amount, converted by molar mass. Like-named read-outs stand apart in the source and are kept apart here.

Legend:
Type in all cases: cell-based
[1] = system: S. maltophilia ICB7569; test: MIC determination, broth microdilution (CLSI); details: Stenotrophomonas maltophilia, ICB7569, strain 10
[2] = system: M. morganii 126/3048; test: MIC determination, broth microdilution (CLSI); details: Morganella morganii, 126/3048, strain 5
[3] = system: E. coli J62-TEM-3; test: MIC determination, broth microdilution (CLSI); details: Escherichia coli, J62TEM3, read-out: MIC strain 18 (E. coli J62-TEM-3), strain 18; broth microdilution
[4] = system: C. perfringens DSM756; test: microbe, parasite or virus in culture; details: Clostridium perfringens, DSM756, read-out: MIC strain 16 (C. perfringens DSM756), strain 16; broth microdilution
[5] = system: S. aureus 133; test: MIC determination, broth microdilution (CLSI)
[6] = system: E. coli ATCC25922; test: MIC determination, broth microdilution (CLSI); details: Escherichia coli, ATCC25922, strain 1
[7] = system: B. fragilis 6688; test: MIC determination, broth microdilution (CLSI); details: Bacteroides fragilis, 6688, strain 15; broth microdilution; read-out: MIC strain 15 (B. fragilis 6688)
[8] = system: S. pneumoniae 113; test: MIC determination, broth microdilution (CLSI); details: Streptococcus pneumoniae, 113, strain 13; broth microdilution; read-out: MIC strain 13 (S. pneumoniae 113)
[9] = system: Bacteria; test: MIC determination in combination with β-lactamase inhibitors (constant 4 μg/mL)
[10] = system: H. influenzae ATCC 49247; test: MIC determination, broth microdilution (CLSI); details: Haemophilus influenzae, ATCC49247, strain 12; broth microdilution; read-out: MIC strain 12 (H. influenzae ATCC 49247)
[11] = system: A. baumannii ATCC15308; test: MIC determination, broth microdilution (CLSI); details: Acinetobacter baumannii, ATCC15308, strain 9
[12] = system: K. pneumoniae 60; test: MIC determination, broth microdilution (CLSI); details: Klebsiella pneumoniae, 60, strain 2
[13] = system: E. cloacae 34654; test: MIC determination, broth microdilution (CLSI); details: Enterobacter cloacae, 34654, strain 3
[14] = system: E. coli J62; test: MIC determination, broth microdilution (CLSI); details: Escherichia coli, J62, strain 17; broth microdilution; read-out: MIC strain 17 (E. coli J62)
[15] = system: C. freundii K21/3034; test: MIC determination, broth microdilution (CLSI); details: Citrobacter freundii, K21/3034, strain 4
[16] = system: P. aeruginosa 2297-con (AmpC derepressed); test: MIC determination, broth microdilution (CLSI); details: Pseudomonas aeruginosa, read-out: strain 8 MIC, strain 8
[17] = system: P. aeruginosa PAO1; test: MIC determination, broth microdilution (CLSI); details: Pseudomonas aeruginosa, PAO1, strain 6
[18] = system: P. aeruginosa 2297 (AmpC wt); test: MIC determination, broth microdilution (CLSI); details: Pseudomonas aeruginosa, strain 7
[19] = Staphylococcus aureus, 133, strain 11, read-out: strain 11 MIC
[20] = Staphylococcus aureus, 133, strain 14, broth microdilution, read-out: MIC strain 14 (S. aureus 133)

| SMILES | MIC [1] [µg/mL] | MIC [2] [µg/mL] | MIC [3] [µg/mL] | MIC [4] [µg/mL] | MIC [5, 19] [µg/mL] | MIC [5, 20] [µg/mL] | MIC [6] [µg/mL] | MIC [7] [µg/mL] | MIC [8] [µg/mL] | MIC strain 19 (E. coli J62-TEM-3 + 4 μg/mL clavulanic acid) [9] | MIC strain 20 (E. coli J62-TEM-3 + 4 μg/mL sulbactam) [9] | MIC strain 21 (E. coli J62-TEM-3 + 4 μg/mL tazobactam) [9] | MIC [10] [µg/mL] | MIC [11] [µg/mL] | MIC [12] [µg/mL] | MIC [13] [µg/mL] | MIC [14] [µg/mL] | MIC [15] [µg/mL] | MIC [16] [µg/mL] | MIC [17] [µg/mL] | other results |
| --- | --- | --- | --- | --- | --- | --- | --- | --- | --- | --- | --- | --- | --- | --- | --- | --- | --- | --- | --- | --- | --- |
| CC1(C)[C@H](NC(=O)/C(=N\O[C@@H](COc2ccc(C(=N)N[C@@H]3CCNC3)cc2)C(=O)O)c2csc(N)n2)C(=O)N1OS(=O)(=O)O [Example 96] | 4 (≈ 6.11 µM) | ≤ 0.063 | 4 (≈ 6.11 µM) | 1 (≈ 1.53 µM) | ≤ 0.063 | 32 (≈ 48.9 µM) | 0.125 (≈ 0.191 µM) | 8 (≈ 12.2 µM) | 0.5 (≈ 0.764 µM) | ≦0.063 mg/L | ≦0.063 mg/L | ≦0.063 mg/L | ≤ 0.063 | 1 (≈ 1.53 µM) | ≤ 0.063 | ≤ 0.063 | 0.125 (≈ 0.191 µM) | ≤ 0.063 | 1 (≈ 1.53 µM) | 1 (≈ 1.53 µM) | MIC [18]: 1 µg/mL (≈ 1.53 µM) |
| CC1(C)[C@H](NC(=O)/C(=N\O[C@@H](COc2ccc(C(=N)NC3CCCNC3)cc2)C(=O)O)c2csc(N)n2)C(=O)N1OS(=O)(=O)O (stereo partly drawn) [Example 97, (2S)-2-({[(1Z)-1-(2-Amino-1,3-thiazol-4-yl)-2-{[(3S)-2,2-dimethyl-4-oxo-1-(sulfooxy)azetidin-3-yl]amino}-2-oxoethylidene]amino}oxy)-3-{4-[N-(piperidin-3-yl)carbamimidoyl]phenoxy}propanoic acid] | 4 (≈ 5.98 µM) | ≤ 0.063 | 4 (≈ 5.98 µM) | 0.5 (≈ 0.748 µM) | ≤ 0.063 | 32 (≈ 47.9 µM) | ≤ 0.063 | 4 (≈ 5.98 µM) | 0.5 (≈ 0.748 µM) | ≦0.063 mg/L | ≦0.063 mg/L | ≦0.063 mg/L | ≤ 0.063 | 1 (≈ 1.5 µM) | 0.125 (≈ 0.187 µM) | 0.125 (≈ 0.187 µM) | 0.125 (≈ 0.187 µM) | ≤ 0.063 | 1 (≈ 1.5 µM) | 1 (≈ 1.5 µM) | MIC [18]: 1 µg/mL (≈ 1.5 µM) |
| CC1(C)[C@H](NC(=O)/C(=N\O[C@@H](COc2ccc(C(=N)NCC3CCCN3)cc2)C(=O)O)c2csc(N)n2)C(=O)N1OS(=O)(=O)O (stereo partly drawn) [Example 98, (2S)-2-({[(1Z)-1-(2-Amino-1,3-thiazol-4-yl)-2-{[(3S)-2,2-dimethyl-4-oxo-1-(sulfooxy)-azetidin-3-yl]amino}-2-oxoethylidene]amino}oxy)-3-{4-[N-(pyrrolidin-2-ylmethyl)carbamimidoyl]phenoxy}propanoic acid] | 4 (≈ 5.98 µM) | ≤ 0.063 | 8 (≈ 12 µM) | 2 (≈ 2.99 µM) | ≤ 0.063 | 32 (≈ 47.9 µM) | 0.125 (≈ 0.187 µM) | 8 (≈ 12 µM) | 0.5 (≈ 0.748 µM) | 0.125 µg/mL | 0.125 µg/mL | 0.125 µg/mL | ≤ 0.063 | 1 (≈ 1.5 µM) | 0.125 (≈ 0.187 µM) | 0.125 (≈ 0.187 µM) | 0.125 (≈ 0.187 µM) | 0.125 (≈ 0.187 µM) | 2 (≈ 2.99 µM) | 1 (≈ 1.5 µM) | MIC [18]: 2 µg/mL (≈ 2.99 µM) |
| CC1(C)[C@H](NC(=O)/C(=N\O[C@@H](COc2ccc(C(=N)NCC3CCCCN3)cc2)C(=O)O)c2csc(N)n2)C(=O)N1OS(=O)(=O)O (stereo partly drawn) [Example 99, (2S)-2-({[(1Z)-1-(2-Amino-1,3-thiazol-4-yl)-2-{[(3S)-2,2-dimethyl-4-oxo-1-(sulfooxy)-azetidin-3-yl]amino}-2-oxoethylidene]amino}oxy)-3-{4-[N-(piperidin-2-ylmethyl)carbamimidoyl]phenoxy}propanoic acid] | 4 (≈ 5.86 µM) | ≤ 0.063 | 4 (≈ 5.86 µM) | 0.5 (≈ 0.732 µM) | ≤ 0.063 | 32 (≈ 46.9 µM) | 0.125 (≈ 0.183 µM) | 8 (≈ 11.7 µM) | 0.5 (≈ 0.732 µM) | 0.125 µg/mL | 0.125 µg/mL | 0.25 µg/mL | ≤ 0.063 | 2 (≈ 2.93 µM) | 0.25 (≈ 0.366 µM) | 0.25 (≈ 0.366 µM) | 0.25 (≈ 0.366 µM) | 0.125 (≈ 0.183 µM) | 2 (≈ 2.93 µM) | 2 (≈ 2.93 µM) | MIC [18]: 2 µg/mL (≈ 2.93 µM) |
